Laboratory results as given in PubChem BioAssay (NCI).
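Assay format: 96-well plates, 48-hour exposure. The concentration for full growth arrest is given as TGI.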

Assays:
Experiment in all cases: NCI tumour cell line growth inhibition, 48 h
[1] = test system: HCT-116 colon
[2] = test system: KM12 colon
[3] = test system: UACC-62 melanoma
[4] = test system: DLD-1 colon
[5] = test system: SK-MEL-2 melanoma
[6] = test system: NCI-H226 lung
[7] = test system: XF 498 CNS
[8] = test system: UO-31 renal
[9] = test system: SNB-78 CNS
[10] = test system: DMS 114 small cell lung
[11] = test system: SK-OV-3 ovarian
[12] = test system: SNB-75 CNS
[13] = test system: MOLT-4 leukemia
[14] = test system: SK-MEL-28 melanoma
[15] = test system: LOX IMVI melanoma
[16] = test system: HOP-18 NSCLC
[17] = test system: KM20L2 colon
[18] = test system: HCT-15 colon
[19] = test system: NCI-H460 lung
[20] = test system: RXF-631 renal
[21] = test system: HT29 colon
[22] = test system: LXFL 529 NSCLC
[23] = test system: NCI-H23 lung
[24] = test system: U251 CNS
[25] = test system: DMS 273 small cell lung
[26] = test system: OVCAR-4 ovarian
[27] = test system: M19-MEL melanoma
[28] = test system: SK-MEL-5 melanoma
[29] = test system: RXF 393 renal
[30] = test system: ACHN renal
[31] = test system: CAKI-1 renal
[32] = test system: IGROV1 ovarian
[33] = test system: SF-295 CNS
[34] = test system: HOP-92 NSCLC
[35] = test system: SR leukemia
[36] = test system: NCI-H522 lung
[37] = test system: TK-10 renal
[38] = test system: SW-620 colon
[39] = test system: OVCAR-5 ovarian
[40] = test system: CCRF-CEM leukemia
[41] = test system: A498 renal
[42] = test system: RPMI-8226 leukemia
[43] = test system: SNB-19 CNS
[44] = test system: A549 NSCLC
[45] = test system: HCC-2998 colon
[46] = test system: K-562 leukemia
[47] = test system: HL-60(TB) leukemia
[48] = test system: OVCAR-3 ovarian
[49] = test system: SN12C renal
[50] = test system: COLO 205 colon
[51] = test system: MALME-3M melanoma
[52] = test system: 786-0 renal
[53] = test system: M14 melanoma
[54] = test system: SF-268 CNS
[55] = test system: HOP-62 NSCLC
[56] = test system: UACC-257 melanoma
[57] = test system: EKVX NSCLC
[58] = test system: OVCAR-8 ovarian
[59] = test system: SF-539 CNS

## Cc1cccc2[s+]snc12
[1]
  TGI: > 100 µM
[2]
  TGI: > 100 µM
[3]
  TGI: > 100 µM
[4]
  TGI: 74.9 µM
[5]
  TGI: > 100 µM
[6]
  TGI: > 100 µM
[7]
  TGI: > 100 µM
[8]
  TGI: > 100 µM
[9]
  TGI: > 100 µM
[10]
  TGI: > 100 µM
[11]
  TGI: > 100 µM
[12]
  TGI: > 100 µM
[13]
  TGI: > 65.2 µM
[14]
  TGI: > 70.7 µM
[15]
  TGI: > 100 µM
[16]
  TGI: > 100 µM
[17]
  TGI: > 100 µM
[18]
  TGI: > 72.3 µM
[19]
  TGI: > 100 µM
[20]
  TGI: 43.4 µM
[21]
  TGI: > 100 µM
[22]
  TGI: > 92.5 µM
[23]
  TGI: > 100 µM
[24]
  TGI: > 100 µM
[25]
  TGI: > 100 µM
[26]
  TGI: > 100 µM
[27]
  TGI: > 100 µM
[28]
  TGI: > 100 µM
[29]
  TGI: > 75.1 µM
[30]
  TGI: > 100 µM
[31]
  TGI: > 100 µM
[32]
  TGI: > 100 µM
[33]
  TGI: > 100 µM
[34]
  TGI: 44.9 µM
[35]
  TGI: 77.8 µM
[36]
  TGI: 35.9 µM
[37]
  TGI: > 100 µM
[38]
  TGI: 48.9 µM
[39]
  TGI: > 100 µM
[40]
  TGI: > 65.1 µM
[41]
  TGI: > 100 µM
[42]
  TGI: > 81.4 µM
[43]
  TGI: > 100 µM
[44]
  TGI: > 100 µM
[45]
  TGI: > 100 µM
[46]
  TGI: 59.3 µM
[47]
  TGI: 41.8 µM
[48]
  TGI: > 89 µM
[49]
  TGI: > 100 µM
[50]
  TGI: 50.8 µM
[51]
  TGI: > 67.3 µM
[52]
  TGI: > 100 µM
[53]
  TGI: > 100 µM
[54]
  TGI: > 100 µM
[55]
  TGI: > 100 µM
[56]
  TGI: > 100 µM
[57]
  TGI: > 77.4 µM
[58]
  TGI: > 63.7 µM
[59]
  TGI: > 100 µM

## Nc1nc(=S)[nH]c(C(=O)Nc2ccc(Cl)c(Cl)c2)c1-c1ccc(Cl)cc1
[1]
  TGI: > 100 µM
[2]
  TGI: > 100 µM
[3]
  TGI: > 100 µM
[4]
  TGI: > 100 µM
[6]
  TGI: > 100 µM
[7]
  TGI: > 100 µM
[8]
  TGI: > 100 µM
[10]
  TGI: > 100 µM
[11]
  TGI: > 100 µM
[12]
  TGI: > 100 µM
[13]
  TGI: > 100 µM
[14]
  TGI: > 100 µM
[15]
  TGI: > 100 µM
[16]
  TGI: > 100 µM
[17]
  TGI: > 100 µM
[18]
  TGI: > 100 µM
[19]
  TGI: > 100 µM
[20]
  TGI: > 100 µM
[21]
  TGI: > 100 µM
[22]
  TGI: > 100 µM
[23]
  TGI: > 100 µM
[24]
  TGI: > 100 µM
[26]
  TGI: > 100 µM
[27]
  TGI: > 100 µM
[28]
  TGI: > 100 µM
[29]
  TGI: > 100 µM
[30]
  TGI: > 100 µM
[31]
  TGI: > 100 µM
[32]
  TGI: > 100 µM
[33]
  TGI: > 100 µM
[34]
  TGI: > 100 µM
[35]
  TGI: > 100 µM
[36]
  TGI: > 100 µM
[37]
  TGI: > 100 µM
[38]
  TGI: > 100 µM
[39]
  TGI: > 100 µM
[40]
  TGI: > 100 µM
[41]
  TGI: > 100 µM
[42]
  TGI: > 100 µM
[43]
  TGI: > 100 µM
[44]
  TGI: > 100 µM
[45]
  TGI: > 100 µM
[46]
  TGI: > 100 µM
[47]
  TGI: > 100 µM
[48]
  TGI: > 100 µM
[49]
  TGI: > 100 µM
[50]
  TGI: > 100 µM
[51]
  TGI: > 100 µM
[52]
  TGI: > 100 µM
[53]
  TGI: > 100 µM
[54]
  TGI: > 100 µM
[55]
  TGI: > 100 µM
[56]
  TGI: > 100 µM
[57]
  TGI: > 100 µM
[58]
  TGI: > 100 µM
[59]
  TGI: > 100 µM

## NC(=S)N/N=C(\C(=O)Nc1cccc([N+](=O)[O-])c1)c1nc2ccc([N+](=O)[O-])cc2[nH]c1=O
[1]
  TGI: > 100 µM
[2]
  TGI: > 100 µM
[3]
  TGI: > 100 µM
[4]
  TGI: > 100 µM
[5]
  TGI: > 100 µM
[6]
  TGI: > 100 µM
[7]
  TGI: > 100 µM
[8]
  TGI: > 100 µM
[10]
  TGI: > 100 µM
[11]
  TGI: > 100 µM
[12]
  TGI: > 100 µM
[13]
  TGI: > 100 µM
[14]
  TGI: > 100 µM
[15]
  TGI: > 100 µM
[16]
  TGI: > 100 µM
[17]
  TGI: > 100 µM
[18]
  TGI: > 100 µM
[19]
  TGI: > 100 µM
[20]
  TGI: > 100 µM
[21]
  TGI: > 100 µM
[22]
  TGI: > 100 µM
[23]
  TGI: > 100 µM
[24]
  TGI: > 100 µM
[25]
  TGI: > 100 µM
[26]
  TGI: > 100 µM
[27]
  TGI: > 100 µM
[28]
  TGI: > 100 µM
[29]
  TGI: > 100 µM
[30]
  TGI: > 100 µM
[32]
  TGI: > 100 µM
[33]
  TGI: > 100 µM
[34]
  TGI: > 100 µM
[36]
  TGI: 53 µM
[37]
  TGI: > 100 µM
[38]
  TGI: > 100 µM
[39]
  TGI: > 100 µM
[40]
  TGI: > 100 µM
[41]
  TGI: > 100 µM
[42]
  TGI: > 100 µM
[43]
  TGI: > 100 µM
[44]
  TGI: > 100 µM
[45]
  TGI: > 100 µM
[46]
  TGI: > 100 µM
[47]
  TGI: > 100 µM
[50]
  TGI: > 100 µM
[51]
  TGI: > 100 µM
[52]
  TGI: > 100 µM
[53]
  TGI: > 100 µM
[54]
  TGI: > 100 µM
[55]
  TGI: > 100 µM
[56]
  TGI: > 100 µM
[57]
  TGI: > 100 µM
[58]
  TGI: > 100 µM
[59]
  TGI: > 100 µM
